Legend:
Type in all cases: in vivo
Design in all cases: key: 0 is no effect; 10 is complete control
[1] = test system: wild oat (Avena fatua); test: Test B pre-/postemergence
Summary of the method: (§1)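 Seeds were planted and sprayed preemergence, while plants at 2 to 18 cm (1- to 4-leaf stage) were sprayed postemergence at the same time, with test chemical in a non-phytotoxic solvent mixture containing surfactant. After twelve to sixteen days in a greenhouse, injury was rated visually against untreated controls on a 0–10 scale.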

[2] = test system: purple nutsedge (Cyperus rotundus); test: Test B pre-/postemergence
Summary of the method: as §1

[3] = test system: morningglory (Ipomoea spp.); test: Test A pre-/postemergence; conditions: 0 to 10 scale
Procedure: Seeds of barnyardgrass (Echinochloa crus-galli), crabgrass (Digitaria spp.), morningglory (Ipomoea spp.), and velvetleaf (Abutilon theophrasti) were planted into a sandy loam soil and treated preemergence by soil drench with test chemicals formulated in a non-phytotoxic solvent mixture which includes a surfactant. At the same time, these crop and weed species were also treated postemergence sprayed to runoff, with test chemicals formulated in the same manner. Plants ranged in height from two to eighteen cm and were in the one to two leaf stage for the postemergence treatment. Treated plants and untreated controls were maintained in a greenhouse for approximately eleven days, after which all treated plants were compared to untreated controls and visually evaluated for injury. Plant response ratings, summarized in Table A, are based on a 0 to 10 scale where 0 is no effect and 10 is complete control. A dash (−) response means no test results.

[4] = test system: rice (Oryza sativa); test: Test B flood test
Summary of the method: (§2)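 Plants were grown to the 2-leaf stage before treatment with test chemical, then held in a greenhouse for twelve to sixteen days. Injury was visually rated against untreated controls on a 0–10 scale, where 0 is no effect and 10 is complete control.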

[5] = test system: duck salad (Heteranthera limosa); test: Test B flood test
Summary of the method: as §2

[6] = test system: bamyardgrass (Echinochloa crus-galli); test: Test B flood test
Summary of the method: as §2

[7] = test system: smallflower flatsedge (Cyperus difformis); test: Test B flood test
Summary of the method: as §2

[8] = PRE SOIL DRENCH, Rate 2000 g/ha
[9] = postemergence SPRAYED TO RUNOFF, Rate 1000 g/ha
[10] = Rate 62 g/ha, Postemergence (flood test)
[11] = Rate 125 g/ha, Postemergence, flood test
[12] = Rate 250 g/ha, Postemergence (flood test species)
[13] = Rate 500 g/ha, Postemergence (flood test species)
[14] = Preemergence, Rate 62 g/ha, scale of 0 to 10
[15] = Rate 125 g/ha, Postemergence section (flood test species)

SMILES	Plant response rating, Wild oats ([1]; Rate 250 g/ha, Postemergence)	Plant response rating, Wild oats ([1]; Rate 250 g/ha, Preemergence)	Plant response rating, Wild oats ([1]; Rate 500 g/ha, Postemergence)	Plant response rating, Wild oats ([1]; Rate 500 g/ha, Preemergence)	Plant response rating, Nutsedge ([2]; Rate 250 g/ha, Postemergence)	Plant response rating, Nutsedge ([2]; Rate 250 g/ha, Preemergence)	Plant response rating, Nutsedge ([2]; Rate 500 g/ha, Preemergence)	Plant response rating, Morningglory [3, 8]	Plant response rating, Morningglory [3, 9]	Plant response rating, Rice [4, 12]	Plant response rating, Rice [4, 13]	Plant response rating, Ducksalad [5, 12]	Plant response rating, Ducksalad [5, 13]	Plant response rating, Barnyardgrass [6, 12]	Plant response rating, Barnyardgrass [6, 13]	Plant response rating, S. Flatsedge [7, 12]	Plant response rating, S. Flatsedge [7, 13]	Plant response rating, Wild oats [1, 14]	Wild oats plant response rating ([1]; Rate 62 g/ha, Postemergence)	Wild oats plant response rating ([1]; Rate 125 g/ha, Postemergence)	other results
Cc1cnc(-c2ccc(C(F)(F)F)cc2)nc1Cn1nc(C(F)(F)F)cc1C [Compound 13]	4	7	4	9	0	0	0	3	2	0	1	2	3	3	3	4	5				Plant response rating, Wild oats ([1]; Rate 62 g/ha, Postemergence): 3; Wild oats plant response rating ([1]; Rate 62 g/ha, Preemergence): 3; Plant response rating, Wild oats ([1]; Rate 125 g/ha, Postemergence): 3; Wild oats plant response rating ([1]; Rate 125 g/ha, Preemergence): 5; Plant response rating, Nutsedge ([2]; Rate 62 g/ha, Postemergence): 0; Nutsedge plant response rating ([2]; Rate 62 g/ha, Preemergence): 0; Plant response rating, Nutsedge ([2]; Rate 125 g/ha, Postemergence): 0; Nutsedge plant response rating ([2]; Rate 125 g/ha, Preemergence): 0; Plant response rating, Nutsedge ([2]; Rate 500 g/ha, Postemergence): 0; Plant response rating, Rice [4, 10]: 0; Plant response rating, Rice [4, 11]: 0; Plant response rating, Ducksalad [5, 10]: 0; Plant response rating, Ducksalad [5, 11]: 1; Plant response rating, Barnyardgrass [6, 10]: 2; Plant response rating, Barnyardgrass [6, 11]: 2; Plant response rating, S. Flatsedge [7, 10]: 2; Plant response rating, S. Flatsedge [7, 11]: 4
Cc1cnc(-n2ccc(C(F)(F)F)n2)nc1C(=O)c1cccc(C(F)(F)F)c1 [Compound 59]	3	9	6	9	0	0	0	9	8	4	6	6	7	5	8	8	9	7	1	1	Plant response rating, Wild oats ([1]; Rate 125 g/ha, Preemergence): 8; Plant response rating, Nutsedge [2, 14]: 0; Nutsedge plant response rating ([2]; Rate 62 g/ha, Postemergence): 0; Nutsedge plant response rating ([2]; Rate 125 g/ha, Postemergence): 0; Plant response rating, Nutsedge ([2]; Rate 125 g/ha, Preemergence): 0; Plant response rating, Nutsedge ([2]; Rate 500 g/ha, Postemergence): 0; Rice plant response rating [4, 10]: 2; Rice plant response rating [4, 15]: 3; Ducksalad plant response rating [5, 10]: 3; Ducksalad plant response rating [5, 15]: 4; Barnyardgrass plant response rating [6, 10]: 3; Barnyardgrass plant response rating [6, 15]: 4; S. Flatsedge plant response rating [7, 10]: 7; S. Flatsedge plant response rating [7, 15]: 7
Cc1cnc(-n2ccc(C(F)(F)F)n2)nc1C(=O)c1ccc(C(F)(F)F)cc1 [Compound 65]	1	0	1	0	0	0	0	4	10	0	0	0	0	0	0	0	0	0	1	1	Plant response rating, Wild oats ([1]; Rate 125 g/ha, Preemergence): 0; Plant response rating, Nutsedge [2, 14]: 0; Nutsedge plant response rating ([2]; Rate 62 g/ha, Postemergence): 0; Nutsedge plant response rating ([2]; Rate 125 g/ha, Postemergence): 0; Plant response rating, Nutsedge ([2]; Rate 125 g/ha, Preemergence): 0; Rice plant response rating [4, 10]: 0; Rice plant response rating [4, 15]: 0; Ducksalad plant response rating [5, 10]: 0; Ducksalad plant response rating [5, 15]: 0; Barnyardgrass plant response rating [6, 10]: 0; Barnyardgrass plant response rating [6, 15]: 0; S. Flatsedge plant response rating [7, 10]: 0; S. Flatsedge plant response rating [7, 15]: 0
Cc1cnc(-c2ccc(C(F)(F)F)cc2)nc1C(=O)c1cccc(C(F)(F)F)c1 [Compound 73]	9	10	9	10	2	0	0	9	9	6	3	2	3	6	4	6	3	7	6	7	Plant response rating, Wild oats ([1]; Rate 125 g/ha, Preemergence): 9; Plant response rating, Nutsedge [2, 14]: 0; Nutsedge plant response rating ([2]; Rate 62 g/ha, Postemergence): 0; Nutsedge plant response rating ([2]; Rate 125 g/ha, Postemergence): 0; Plant response rating, Nutsedge ([2]; Rate 125 g/ha, Preemergence): 0; Rice plant response rating [4, 10]: 5; Rice plant response rating [4, 15]: 5; Ducksalad plant response rating [5, 10]: 1; Ducksalad plant response rating [5, 15]: 1; Barnyardgrass plant response rating [6, 10]: 4; Barnyardgrass plant response rating [6, 15]: 5; S. Flatsedge plant response rating [7, 10]: 3; S. Flatsedge plant response rating [7, 15]: 3
Cc1cnc(-c2ccc(C(F)(F)F)cc2)nc1C(=O)c1ccc(C(F)(F)F)cc1 [Compound 74]	1	0	1	0	0	0	0	1	10	0	0	0	0	0	0	0	0	0	1	1	Plant response rating, Wild oats ([1]; Rate 125 g/ha, Preemergence): 0; Plant response rating, Nutsedge [2, 14]: 0; Nutsedge plant response rating ([2]; Rate 62 g/ha, Postemergence): 0; Nutsedge plant response rating ([2]; Rate 125 g/ha, Postemergence): 0; Plant response rating, Nutsedge ([2]; Rate 125 g/ha, Preemergence): 0; Rice plant response rating [4, 10]: 0; Rice plant response rating [4, 15]: 0; Ducksalad plant response rating [5, 10]: 0; Ducksalad plant response rating [5, 15]: 0; Barnyardgrass plant response rating [6, 10]: 0; Barnyardgrass plant response rating [6, 15]: 0; S. Flatsedge plant response rating [7, 10]: 0; S. Flatsedge plant response rating [7, 15]: 0

Source: US6525001B1, “Substituted pyrimidine and pyridine herbicides” (Mid-American Commercialization Corporation, priority 1997, dated 2003)
